Two molecules from ChEMBL document CHEMBL4619766, “Eudesmacarbonate, a Eudesmane-Type Sesquiterpene from a Marine Filamentous Cyanobacterial Mat (Oscillatoriales) in the Florida Keys” (J Nat Prod, 2020) can be followed below.

Data set [1] is described as follows: Toxicity in 4 to 5 hpf stage wild type zebrafish AB embryo assessed as induction of bradycardia at 4.5 to 22 nM under 14 hrs light and 10 hrs dark condition and measured at 3 dpf stage by microscopic analysis. Particulars: in vivo, 0.022 µM. More on the design: species or system Danio rerio.
The nature of data set [2]: Neurotoxicity in 4 to 5 hpf stage wild type zebrafish AB embryo assessed as irregular inflated swim bladder at 4.5 to 22 nM under 14 hrs light and 10 hrs dark condition and measured at 5 dpf stage by microscopic analysis. Type of data set: toxicity, Danio rerio. The conditions noted are these: in vivo, 0.022 µM.
Data set [3] in a line: Neurotoxicity in 4 to 5 hpf stage wild type zebrafish AB embryo assessed as induction of head butting at 4.5 to 22 nM under 14 hrs light and 10 hrs dark condition and measured at 5 dpf stage by microscopic analysis. Particulars: in vivo, 0.022 µM. Type of data set: toxicity, Danio rerio.
The nature of data set [4]: Neurotoxicity in 4 to 5 hpf stage wild type zebrafish AB embryo assessed as induction of motor incoordination at 4.5 to 22 nM under 14 hrs light and 10 hrs dark condition and measured at 5 dpf stage by microscopic analysis. The conditions noted are these: in vivo, 0.022 µM. Type of data set: toxicity, Danio rerio.
Data set [5] in a line: Neurotoxicity in 4 to 5 hpf stage wild type zebrafish AB embryo assessed as effect on spasms at 4.5 to 22 nM under 14 hrs light and 10 hrs dark condition and measured at 5 dpf stage by microscopic analysis. Type of data set: toxicity, Danio rerio. Particulars: in vivo, 0.022 µM.
Data set [6] can be described thus: Neurotoxicity in 4 to 5 hpf stage wild type zebrafish AB embryo assessed as reduction in spontaneous coiling frequency at 4.5 to 22 nM under 14 hrs light and 10 hrs dark condition and measured at 24 hpf stage by microscopic analysis. Particulars: in vivo, 0.022 µM. Type of data set: toxicity, Danio rerio.
A short description of data set [7]: Neurotoxicity in 4 to 5 hpf stage wild type zebrafish AB embryo assessed as effect on spontaneous coiling frequency at >= 38 uM under 14 hrs light and 10 hrs dark condition and measured at 24 hpf stage by microscopic analysis. Type of data set: toxicity, Danio rerio. Particulars: in vivo.
Data set [8] can be described thus: Toxicity in 4 to 5 hpf stage wild type zebrafish AB embryo assessed as effect on heart rate at 9.4 to 94 uM under 14 hrs light and 10 hrs dark condition and measured at 3 dpf stage by microscopic analysis. The arrangement: species or system Danio rerio. Particulars: in vivo.
Data set [9] in a line: Neurotoxicity in 4 to 5 hpf stage wild type zebrafish AB embryo assessed as irregular inflated swim bladder at 9.4 to 94 uM under 14 hrs light and 10 hrs dark condition and measured at 5 dpf stage by microscopic analysis. Type of data set: toxicity, Danio rerio. The conditions noted are these: in vivo.
Data set [10] is described as follows: Neurotoxicity in 4 to 5 hpf stage wild type zebrafish AB embryo assessed as irregular development of swim bladder dysfunction at 9.4 to 94 uM under 14 hrs light and 10 hrs dark condition and measured at 5 dpf stage by microscopic analysis. Type of data set: toxicity, Danio rerio. Particulars: in vivo.
Data set [11] is described as follows: Neurotoxicity in 4 to 5 hpf stage wild type zebrafish AB embryo assessed as induction of head butting at 9.4 to 94 uM under 14 hrs light and 10 hrs dark condition and measured at 5 dpf stage by microscopic analysis. Type of data set: toxicity, Danio rerio. The conditions noted are these: in vivo.
A short description of data set [12]: Neurotoxicity in 4 to 5 hpf stage wild type zebrafish AB embryo assessed as induction of motor incoordination at 9.4 to 94 uM under 14 hrs light and 10 hrs dark condition and measured at 5 dpf stage by microscopic analysis. Type of data set: toxicity, Danio rerio. The conditions noted are these: in vivo.
Data set [13] is described as follows: Neurotoxicity in 4 to 5 hpf stage wild type zebrafish AB embryo assessed as effect on spasms at 9.4 to 94 uM under 14 hrs light and 10 hrs dark condition and measured at 5 dpf stage by microscopic analysis. Type of data set: toxicity, Danio rerio. The conditions noted are these: in vivo.
A short description of data set [14]: Neurotoxicity in 7 dpf stage zebra fish PSA larvae assessed induction of larval immobilization at 110 to 190 uM measured within 45 mins. Type of data set: toxicity, Danio rerio. Particulars: zebrafish, 0.75 h.
The nature of data set [15]: Neurotoxicity in 7 dpf stage zebra fish PSA larvae assessed induction of larval immobilization at 38 uM measured over 90 mins. Particulars: zebrafish, 1.5 h. Type of data set: toxicity, Danio rerio.
For data set [16], the species on record is Danio rerio. As to the kind of experiment: Induction of larval immobilization in 7 dpf stage zebra fish PSA assessed as immobilization recovery level at 110 uM incubated for 90 mins followed by medium replacement and measured within 10 mins relative to control. Type of data set: toxicity, organism-based. Particulars: zebrafish, in vivo, 1.5 h.
For data set [17], the species on record is Danio rerio. As to the kind of experiment: Induction of larval immobilization in 7 dpf stage zebra fish PSA assessed as immobilization recovery level at 190 uM incubated for 90 mins followed by medium replacement and measured within 10 mins relative to control. Type of data set: toxicity, organism-based. Particulars: zebrafish, in vivo, 1.5 h.

`C=C(C=O)C[C@@H]1C[C@H](O)[C@]2(C)O[C@@H]3C[C@@H]4O[C@@H]5C[C@]6(C)O[C@]7(C)CC[C@@H]8O[C@@H]9C[C@]%10(C)O[C@@H]%11C(C)=CC(=O)O[C@H]%11C[C@H]%10O[C@H]9C[C@@H](C)[C@H]8O[C@H]7C[C@H]6O[C@@]5(C)C/C=C\[C@H]4O[C@H]3C[C@H]2O1` [BREVETOXIN B]: the Activity result in data set [1] is “Toxic”; in data set [2], “Toxic”; in [3] it was “Toxic”; in data set [4], “Toxic”; in data set [5], “Toxic”; in data set [6], “Non-Toxic”.

Regarding `CC(C)[C@@H]1CC[C@]2(C)CCC[C@]3(C)OC(=O)O[C@H]1[C@@H]23`, the Activity result in [7], in data set [8], in data set [9], in data set [10], in data set [11] and in data set [12] was “Toxic” each time. Further, the Activity entry was “Toxic” in data set [13]; “Toxic” in [14]; “Non-Toxic” in data set [15]; 87% in the data set listed under Danio rerio [16]; 47% in the data set listed under Danio rerio [17].
